Test results from PubChem BioAssay (NCI).
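GI50: concentration for 50% inhibition of growth. TGI: concentration producing complete growth inhibition.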

Tests used:
Test in all cases: DTP human tumour cell line panel, 384-well format; in the data active = GI50 below about 0.43 µM; inactive = the rest
UACC-62 melanoma = system: UACC-62 melanoma
MDA-MB-231 breast = system: MDA-MB-231 breast
OVCAR-3 ovarian = system: OVCAR-3 ovarian
SK-MEL-2 melanoma = system: SK-MEL-2 melanoma
T-47D breast = system: T-47D breast
NCI/ADR-RES ovarian = system: NCI/ADR-RES ovarian
DU-145 prostate = system: DU-145 prostate
UO-31 renal = system: UO-31 renal
SK-MEL-5 melanoma = system: SK-MEL-5 melanoma
RXF 393 renal = system: RXF 393 renal
K-562 leukemia = system: K-562 leukemia
SK-MEL-28 melanoma = system: SK-MEL-28 melanoma
UACC-257 melanoma = system: UACC-257 melanoma
SN12C renal = system: SN12C renal
M14 melanoma = system: M14 melanoma
U251 glioblastoma = system: U251 glioblastoma
HOP-92 NSCLC = system: HOP-92 NSCLC
NCI-H460 NSCLC = system: NCI-H460 NSCLC
SNB-19 CNS = system: SNB-19 CNS
HCT-15 colon = system: HCT-15 colon
MOLT-4 leukemia = system: MOLT-4 leukemia
MDA-MB-435 melanoma = system: MDA-MB-435 melanoma
RPMI-8226 leukemia = system: RPMI-8226 leukemia
HT29 colon = system: HT29 colon
MDA-MB-468 breast = system: MDA-MB-468 breast
CAKI-1 renal = system: CAKI-1 renal
PC-3 prostate = system: PC-3 prostate
786-0 renal = system: 786-0 renal
HOP-62 NSCLC = system: HOP-62 NSCLC
KM12 colon = system: KM12 colon
SW-620 colon = system: SW-620 colon
MALME-3M melanoma = system: MALME-3M melanoma
SNB-75 CNS = system: SNB-75 CNS
HS 578T breast = system: HS 578T breast
HL-60(TB) leukemia = system: HL-60(TB) leukemia
MCF7 breast = system: MCF7 breast
TK-10 renal = system: TK-10 renal
SF-268 CNS = system: SF-268 CNS
SF-295 CNS = system: SF-295 CNS
HCC-2998 colon = system: HCC-2998 colon
A549 NSCLC = system: A549 NSCLC
SF-539 CNS = system: SF-539 CNS
OVCAR-8 ovarian = system: OVCAR-8 ovarian
OVCAR-5 ovarian = system: OVCAR-5 ovarian
SK-OV-3 ovarian = system: SK-OV-3 ovarian
HCT-116 colon = system: HCT-116 colon
EKVX NSCLC = system: EKVX NSCLC

Cc1cc([N+](=O)[O-])c(NS(=O)(=O)c2cccc(C(=O)O)c2)cc1-c1cccnc1
> 100 µM: TGI (UACC-62 melanoma) | TGI (MDA-MB-231 breast) | TGI (OVCAR-3 ovarian) | TGI (SK-MEL-2 melanoma) | TGI (T-47D breast) | TGI (NCI/ADR-RES ovarian) | TGI (DU-145 prostate) | TGI (UO-31 renal) | TGI (SK-MEL-5 melanoma) | TGI (RXF 393 renal) | TGI (K-562 leukemia) | TGI (SK-MEL-28 melanoma) | TGI (UACC-257 melanoma) | TGI (SN12C renal) | TGI (M14 melanoma) | TGI (U251 glioblastoma) | TGI (HOP-92 NSCLC) | TGI (NCI-H460 NSCLC) | TGI (SNB-19 CNS) | TGI (HCT-15 colon) | TGI (MOLT-4 leukemia) | TGI (MDA-MB-435 melanoma) | TGI (RPMI-8226 leukemia) | TGI (HT29 colon) | TGI (MDA-MB-468 breast) | TGI (CAKI-1 renal) | TGI (PC-3 prostate) | TGI (786-0 renal) | TGI (HOP-62 NSCLC) | TGI (KM12 colon) | TGI (SW-620 colon) | TGI (MALME-3M melanoma) | TGI (SNB-75 CNS) | TGI (HS 578T breast) | TGI (HL-60(TB) leukemia) | TGI (MCF7 breast) | TGI (TK-10 renal) | TGI (SF-268 CNS) | TGI (SF-295 CNS) | TGI (HCC-2998 colon) | TGI (A549 NSCLC) | TGI (SF-539 CNS) | TGI (OVCAR-8 ovarian) | TGI (OVCAR-5 ovarian) | TGI (SK-OV-3 ovarian) | TGI (HCT-116 colon) | TGI (EKVX NSCLC)
inactive: GI50 (UACC-62 melanoma) > 100 µM | GI50 (MDA-MB-231 breast) > 100 µM | GI50 (OVCAR-3 ovarian) > 100 µM | GI50 (SK-MEL-2 melanoma) > 100 µM | GI50 (T-47D breast) > 100 µM | GI50 (NCI/ADR-RES ovarian) > 100 µM | GI50 (DU-145 prostate) > 100 µM | GI50 (UO-31 renal) > 100 µM | GI50 (SK-MEL-5 melanoma) > 100 µM | GI50 (RXF 393 renal) > 100 µM | GI50 (K-562 leukemia) > 100 µM | GI50 (SK-MEL-28 melanoma) > 100 µM | GI50 (UACC-257 melanoma) > 100 µM | GI50 (SN12C renal) > 100 µM | GI50 (M14 melanoma) > 100 µM | GI50 (U251 glioblastoma) > 100 µM | GI50 (HOP-92 NSCLC) > 100 µM | GI50 (NCI-H460 NSCLC) > 100 µM | GI50 (SNB-19 CNS) > 100 µM | GI50 (HCT-15 colon) > 100 µM | GI50 (MOLT-4 leukemia) > 100 µM | GI50 (MDA-MB-435 melanoma) > 100 µM | GI50 (RPMI-8226 leukemia) > 100 µM | GI50 (HT29 colon) > 100 µM | GI50 (MDA-MB-468 breast) > 100 µM | GI50 (CAKI-1 renal) > 100 µM | GI50 (PC-3 prostate) > 100 µM | GI50 ([…]-0 renal) > 100 µM | GI50 (HOP-62 NSCLC) > 100 µM | GI50 (KM12 colon) 16.8 µM | GI50 (SW-620 colon) > 100 µM | GI50 (MALME-3M melanoma) > 100 µM | GI50 (SNB-75 CNS) > 100 µM | GI50 (HS 578T breast) > 100 µM | GI50 (HL-60(TB) leukemia) > 100 µM | GI50 (MCF7 breast) > 100 µM | GI50 (TK-10 renal) > 100 µM | GI50 (SF-268 CNS) > 100 µM | GI50 (SF-295 CNS) > 100 µM | GI50 (HCC-2998 colon) > 100 µM | GI50 (A549 NSCLC) > 100 µM | GI50 (SF-539 CNS) > 100 µM | GI50 (OVCAR-8 ovarian) > 100 µM | GI50 (OVCAR-5 ovarian) > 100 µM | GI50 (SK-OV-3 ovarian) > 100 µM | GI50 (HCT-116 colon) > 100 µM | GI50 (EKVX NSCLC) > 100 µM
